For this experiment, the target named is T1, Human Type I Steroid 5α-Reductase (Homo sapiens, UniProt P18405).
T1 construct: Preparation of Type I 5α-Reductase from Human Scalp; from tissue; host or cells: human scalp punch biopsies from hair transplant procedures; 100,000 x g pellet of skin homogenate
T1 sequence (P18405 1-259): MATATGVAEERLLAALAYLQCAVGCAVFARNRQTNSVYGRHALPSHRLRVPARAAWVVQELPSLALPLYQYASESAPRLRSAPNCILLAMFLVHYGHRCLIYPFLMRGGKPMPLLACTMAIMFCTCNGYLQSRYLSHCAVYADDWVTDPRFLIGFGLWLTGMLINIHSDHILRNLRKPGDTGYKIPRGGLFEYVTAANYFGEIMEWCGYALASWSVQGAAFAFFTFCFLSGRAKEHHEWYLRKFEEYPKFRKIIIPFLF
Put plainly: Human Type I steroid 5α-reductase homogenate assay (conversion of [3H]-testosterone to [3H]-5α-dihydrotestosterone). Type of experiment: biochemical. Conditions: 0.3 μM concentration; compared to control reaction mixtures; enzyme from human scalp, pH 7.5, 25°, 180 min. From the text:
Methodology of Human Type I Steroid 5α-Reductase Assays
Approximately 60-75 punches from one surgical procedure were used to generate an enzyme preparation. The subcutaneous tissue was cut away and discarded. The skin was frozen with liquid nitrogen and pulverized to powder. […] The homogenization procedure consisted of four 15 second pulses. Connective tissue was cleared from the probe with forceps between pulses. […] The pellet was resuspended by homogenization with a Dounce homogenizer using the same buffer solution. […] Aliquots of the enzyme preparation were stored at -80° until use.
The reaction was initiated by the addition of 0.5 mg of Type I 5α-reductase. The reaction mixture was incubated at 25° for 180 min, and terminated by the addition of 1 mL ice-cold stopping solution. […] The samples were prepared for high performance liquid chromatography by solid phase extraction. […] The reaction mixtures were then applied to the columns. The columns were subsequently washed with 5 mL of acetone:water (1:4), followed by 0.3 mL of methanol. The samples were then eluted with 3 mL of methanol and collected in 20 mL scintillation vials. Three mL of water was then added to each scintillation vial. […] The column temperature was maintained at 35° and the flow rate was 1.5 mL/min.
Take “(+)-(4aR)-(10bR)-4-methyl-8-benzyloxycarbonyl-10b-methyl-1,2,3,4,4a,5,6,10b-octahydrobenzo[f]quinolin-3-one [Example 144]”: the “percent inhibition of Type I 5AR” value is given as 90%.

Turning to `CN1C(=O)CC[C@]2(C)c3ccc(-c4ccc(-c5ccc(NC(=O)C(C)(C)C)s5)cc4)cc3CC[C@@H]12` [Example 222, (+)-(4aR)-(10bR)-4-methyl-8-(4-[(2-t-butylcarbonylamino]-5-thienyl]phenyl)-10b-methyl-1,2,3,4,4a,5,6,10b-octahydrobenzo[f]quinolin-3-one], the “percent inhibition of Type I 5AR” value came to 86%. Then “(+)-(4aR)-(10bR)-4-methyl-8-(3-[1-benzyl-4-piperidinylcarboxamido]phenyl)-10b-methyl-1,2,3,4,4a,5,6,10b-octahydrobenzo[f]quinolin-3-one [Example 209]”, with 24%.

With “(+)-(4aR)-(10bR)-4-methyl-8-(3-t-butylcarboxamidophenyl)-10b-methyl-1,2,3,4,4a,5,6,10b-octahydrobenzo[f]quinolin-3-one [Example 34]”, the “percent inhibition of Type I 5AR” value is reported as 13%.
